From US20130157924A1, “REDUCING TRANSMISSION OF SEXUALLY TRANSMITTED INFECTIONS” (THE REGENTS OF THE UNIVERSITY OF CALIFORNIA, priority 2010, published 2013)
“Also recorded” adds a separate entry of the source.

Key:
[1] = test system: HIV-1 (IIIB); test: SEVI mediated enhancement of HIV infection, CEM 5.25 cells (luciferase); type: cell-based; settings: 25 μg/mL SEVI fibrils; compound 5.5, 11 and 16.5 μg/mL; 72 hrs
Experimental: CEM 5.25 cells were exposed to infectious HIV-1 (IIIB) for 2 hours in the absence or presence (25 μg/mL) of SEVI fibrils; BTA-EG4 (FIG. 5A) and EG6 (FIG. 5B) was added at concentrations of 5.5, 11 and 16.5 μg/mL.

[2] = test system: HIV-1 IIIB; test: Semen mediated enhancement of HIV infection, CEM 5.25 cells (luciferase); type: cell-based; settings: 50% semen, diluted 15 fold; 48 hours
Experimental: After 10 minutes these stocks were diluted 15 fold into CEM 5.25 cells.
After 10 minutes, the stocks were diluted 15 fold and incubated with CEM 5.25 cells. […] After 90 minutes cells were washed to remove any unbound virus and bound virions were detected using a p24 ELISA.

[3] = test system: HIV-1 IIIB; test: Virus binding assay, HIV-1 IIIB virions to Jurkat cells (p24); type: cell-based; settings: for SEVI-enhanced binding of HIV-1 IIIB virions to Jurkat cells (p24 ELISA): SEVI-pretreated virions, 90 min, increasing concentrations
Experimental: After 90 minutes, cells were washed to remove any unbound virus and bound virions were detected using a p24 ELISA. […]
After 90 min, cells were washed to remove any unbound virus, and bound virions were detected using an HIV-1 p24 antigen capture assay (Advanced Bioscience Laboratory). […]
After 90 min, cells were washed to remove any unbound virus, and bound virions were detected using an HIV-1 p24 antigen capture assay (Advanced Bioscience Laboratory, Rockville, Md.).

[4] = test system: cervical epithelial cell lines SiHa, A2En (endocervical), and 3EC1 (ectocervical); test: Viability of cervical cell lines (resazurin, AlamarBlue); type: cell-based, human; settings: up to 10 times the IC50 (66 μg/ml)
From the text: Loss of this protective layer leads to an increased ability for HIV-1 to cross the mucosal barrier, and inflammatory effects drive recruitment of HIV-1 target cells, further decreasing the natural barriers against successful transmission of HIV. […] To do this, the following cell lines were used: 1) SiHa cells, a cervical carcinoma cell line; 2) A2En cells, a primary cell-derived line from the endocervical […]; and 3) 3EC1 cells, a primary cell-derived line from the ectocervical […]. […] Viability was assessed at 24 h by using the resazurin cytotoxicity assay. Resazurin cytotoxicity data were confirmed by trypan blue counts of viable cells.

[5] = test system: A2En, 3EC1, and SiHa Cells; test: Cytokine and chemokine induction in cervical cell lines (ELISA); settings: 6 h; varying concentrations up to 66 μg/ml
Experimental: Cytokine and chemokine production was assessed at 12 h by ELISA (R&D systems). Cells were also treated with 0.1% nonoxynol-9 as a positive control for cytotoxicity and with 0.1 μg/ml FSL1, a synthetic diacylated lipoprotein derived from Mycoplasma salivarium (InvivoGen, San Diego, Calif.), as a positive control for chemokine production.
Nonoxynol-9 (non-9), a spermicide, was used as a positive control. […] Cell culture supernatants were then assessed for the presence of the inflammatory cytokines and chemokines Mip-3α (FIG. 5B), IL-8 (FIG. 16C), IL-1β, and TNF-α.

[6] = target: T1, SEVI fibrils (Homo sapiens, UniProt P15309); test: Fluorescence polarization, displacement of FITC-heparin from SEVI fibrils; type: binding; parameters: PAP248-286 and biotinylated PAP248-286, in which a biotin was added to the amino terminus of the peptide, was synthesized; made in house; host or cells: chemical peptide synthesis; fibrils formed by agitation in PBS at 37 °C for 72 h; settings: 16 μg/ml FITC-heparin; 1 h room temperature
T1 sequence (P15309 248-286 limits assumed): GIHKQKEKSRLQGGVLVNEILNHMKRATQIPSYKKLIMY
Experimental: Samples were incubated 1 h at room temperature and read on a PerkinElmer Life Sciences Envision 2012 multilabel reader (PerkinElmer, Waltham, Mass.) at an excitation λ=480 nm and emission λ=535 nm. The horizontal and vertical polarized fluorescence intensities were recorded, and the calculated polarization was determined in millipolarization units.
In order to find other small molecules that bind SEVI, a fluorescence polarizing screen was developed. Polarized light passed over a small unbound molecule with a fluorescent moiety will produce rapid rotation and will result in fluorescence that is de-polarized. Polarized light passed over SEVI bound to a small molecule with a fluorescent moiety will result in fluorescence that is polarized. […] Samples were incubated at excitation of λ=480 and emission λ=535 (FIG. 8, left graph). […] Samples were incubated for 1 hour at room temperature and polarized fluorescence was measured.
ThT is able to intercalate into the generic β-sheet structure of amyloid fibrils. […] This molecule binds to Aβ fibrils and interferes with the ability of Aβ-binding proteins to interact with the fibrils.

[7] = target: aggregated Alzheimer disease-related Aβ(1-42) peptides (Homo sapiens, UniProt P05067); settings: read-out: Kd for binding to aggregated Aβ(1-42) peptides; same fluorescence binding assay
Chain of aggregated Alzheimer disease-related Aβ(1-42) peptides (P05067 672-713): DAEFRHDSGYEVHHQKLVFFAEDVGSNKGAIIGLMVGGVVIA
Experimental: These incubations were performed in duplicate runs and allowed to equilibrate overnight at room temperature. After equilibration, each solution was centrifuged at 16,000×g for 30 min. The supernatants were separated from the pelleted fibrils, and 220 μl of fresh PBS was added to resuspend the pellets. […] Error bars represent standard deviations from the mean. […] The data were processed using Origin 7.0 (MicroCal Software, Inc., Northampton, Mass.).

[8] = test system: Jurkat cells; test: Flow cytometry, binding of SEVI-biotin fibrils to Jurkat cell surface (SA-FITC); type: cell-based, human; settings: for MFI (mean fluorescent intensity) / SA-FITC+ (cells with bound fibrils): SEVI-biotin 1 h
Experimental: Cells were incubated for 1 h at 37° C., washed, and stained for 1 h with a covalent conjugate of streptavidin and fluorescein isothiocyanate (SA-FITC). Cells were washed and run on an Accuri C6 Flow Cytometer (Accuri Cytometers, Ann Arbor, Mich.). Data were analyzed using FlowJo (TreeStar Inc, Ashland, Oreg.).
After that time, fibrillar structures were examined by ThT fluorescence. ThT changes in fluorescence intensity when intercalated into the β-sheet structure common to amyloid fibrils; therefore, ThT fluorescence serves as a surrogate measure for fibrillar structure of SEVI and for the stability of SEVI fibrils. […] Binding of the fibrils to the cell surface was detected using SA-FITC. […] Surface-bound fibrils were detected with SA-FITC and measured by flow cytometry. Results are shown as percentage of cells with bound fibrils (SA-FITC+) as well as mean fluorescent intensity (MFI).

[9] = test system: HIV-1ADA
Experimental: Treated virions were then added to 5×10^4 CEM-M7 cells/well in 96-well flat-bottomed tissue culture plates. After 2 h, the medium […] were replaced. Infection was assayed after 48 h by quantifying luciferase expression using the Promega Dual-Luciferase assay and a Beckman Coulter DTX880 plate reader.

[10] = test system: HIV-1BaL
Experimental: Cells were washed at 3 h, and infection was analyzed at day 4 using the HIV-1 p24 antigen capture assay (Advanced Bioscience Laboratory).

[11] = test system: HIV-1ADA; settings: individual semen sample, 50%; R5 virus
Experimental: (§1) After 15 min, the semen and virus mixture was diluted 1:15 into 5×10^4 CEM-M7 cells/well in a 96-well plate. Cells were washed after 1 h, and infection was assayed at 48 h as above.
(§2) As human semen has been reported to be toxic to cultured cells, a protocol that minimized this toxicity was used. Pooled human semen was added to HIV-1IIIB virus in a 1:1 dilution. After 15 min, this solution was added to cells at a 1:15 dilution for a final concentration of 3.3%.

[12] = test system: HIV-1IIIB; settings: pooled human semen 1:1, then 1:15; 5.5, 11, 22.5 μg/ml
Experimental: as §1, §2

[13] = test system: A2En cells; settings: 15 μg/ml SEVI; 5.5, 11, 22.5 μg/ml; 24 h
Experimental: Supernatant was collected at 6 and 24 h, and the production of the chemokines IL-8 and Mip-3α was measured by ELISA (R&D Systems). […] After 6 h, supernatants were collected, and the production of the chemokines IL-8 and Mip-3α was measured by ELISA (R&D systems, Minneapolis, Minn.).
HIV stimulates the release of MIP-3 and IL-8 from vaginal and cervical epithelial cells.

[14] = test system: HIV-1ADA; settings: 22.5 μg/ml BTA-EG6
Experimental: After 90 min, cells were washed to remove any unbound virus, and bound virions were detected using a p24 ELISA. […] At 24 h, supernatants were collected and analyzed by ELISA for the presence of IL-8.
Surface-bound virions were then measured by p24 ELISA after washing off unbound virus. […] Additionally, this experiment was performed using A2En cells, a primary cell-derived endocervical cell line.

[15] = heparin (100 μg/ml) positive control

Compound: Cc1ccc2nc(-c3ccc(NCCOCCOCCOCCO)cc3)sc2c1 [BTA-EG4]
- SEVI mediated enhancement of HIV infection (luciferase activity) [1]: decreasing levels of luciferase activity; also recorded: inhibit SEVI mediated enhancement of HIV infection
- semen mediated enhancement of HIV infection (luciferase activity) [2]: decrease in luciferase activity; also recorded: inhibit semen mediated enhancement of HIV Infection
- SEVI-enhanced binding of HIV-1 IIIB virions to Jurkat cells (p24 ELISA) [3]: decrease in HIV-1 binding to the cells; also recorded: decrease SEVI enhanced binding of HIV to target cells
- cell viability [4]: did not affect the cell viability; also recorded: not toxic to cervical epithelial Cells
- production of inflammatory cytokines and chemokines (Mip-3α, IL-8, IL-1β, TNF-α) [5]: do not induce cytokine production in cervical epithelial cells
- binding to SEVI fibrils (displacement of FITC-heparin, polarized fluorescence) [6]: capable of binding SEVI; also recorded: detects binding

Compound: Cc1ccc2nc(-c3ccc(NCCOCCOCCOCCOCCOCCO)cc3)sc2c1 [BTA-EG6]
- SEVI mediated enhancement of HIV infection (luciferase activity) [1]: decreasing levels of luciferase activity; also recorded: inhibit SEVI mediated enhancement of HIV infection
- semen mediated enhancement of HIV infection (luciferase activity) [2]: decrease in luciferase activity; also recorded: inhibit semen mediated enhancement of HIV Infection
- binding of HIV virions to the cell surface in the absence of SEVI ([3]; Jurkat cells, no SEVI): no effect on the binding of HIV virions to the cell surface; also recorded: no effect on the binding of HIV-1 virions alone to cells
- SEVI-enhanced binding of HIV-1 IIIB virions to Jurkat cells (p24 ELISA) [3]: decrease in HIV-1 binding to the cells; also recorded: decrease SEVI enhanced binding of HIV to target cells; also recorded: efficiently inhibited SEVI-mediated enhancement of HIV-1IIIB attachment to Jurkat cells
- SEVI-enhanced binding of HIV-1 IIIB virions to Jurkat cells (p24 ELISA) ([3]; listed as BTAEG6): efficiently abrogated
- Kd [7]: 111 ± 32 nM
- MFI (mean fluorescent intensity) ([8]; BTA-EG6 high (27 μg/ml)): 38.7
- SA-FITC+ (cells with bound fibrils) ([8]; BTA-EG6 high (27 μg/ml)): 21.2%
- MFI (mean fluorescent intensity) ([8]; BTA-EG6 low (5.5 μg/ml)): 95.3
- SA-FITC+ (cells with bound fibrils) ([8]; BTA-EG6 low (5.5 μg/ml)): 36.6%
- interaction of SEVI fibrils with the cell surface ([8]; Jurkat T cells, increasing concentrations): inhibited the ability of SEVI fibrils to interact with and bind the cell surface; also recorded: inhibits the interaction of SEVI fibrils with the cell surface
- SEVI-mediated enhancement of HIV-1 infection (luciferase) ([9]; 15 μg/ml SEVI, R5 strain): significant dose-dependent inhibition
- infectivity of HIV-1ADA in the absence of SEVI ([9]; absence of SEVI): No effect on the infectivity of HIV-1ADA
- SEVI-mediated enhancement of HIV-1 infection in PBMCs (p24) ([10]; 15 μg/ml SEVI, day 4): able to inhibit SEVI-mediated enhancement of HIV-1 infection in PBMCs
- infectivity of HIV-1BaL in PBMCs in the absence of SEVI ([10]; absence of SEVI): no effect on the infectivity of HIV-1BaL
- semen-mediated enhancement of HIV-1 infection (luciferase) [11]: this effect extended to infection with an R5 virus
- semen-mediated enhancement of HIV-1 infection (luciferase) [12]: efficiently inhibited the semen mediated enhancement of HIV-1 infection; also recorded: inhibits semen-mediated enhancement of HIV-1 infectivity
- IL-8 release from cells treated with virus and SEVI [13]: able to inhibit this release
- cell viability [4]: did not affect the cell viability; also recorded: did not have any effects on cell viability; also recorded: not toxic to cervical cells
- cell viability ([4]; listed as EG6): not toxic to cervical epithelial Cells
- SEVI-enhanced binding of virions to A2En cells (p24) [14]: inhibited
- production of inflammatory cytokines and chemokines (Mip-3α, IL-8, IL-1β, TNF-α) [5]: did not lead to the release of any of these cytokines or chemokines; also recorded: do not induce cytokine production in cervical epithelial cells; also recorded: does not induce inflammatory chemokine production in cervical epithelial cells
- binding to SEVI fibrils (displacement of FITC-heparin, polarized fluorescence) [6]: capable of binding SEVI; also recorded: able to displace fluorescent heparin from the SEVI fibrils in a dose-dependent fashion; also recorded: detects binding; also recorded: binds SEVI fibrils

Compound: heparin [reference compound]
- MFI (mean fluorescent intensity) [8, 15]: 376
- SA-FITC+ (cells with bound fibrils) [8, 15]: 31.7%
- binding to SEVI fibrils (displacement of FITC-heparin, polarized fluorescence) [6]: polarization decreased
